# Article PMC5563081, “Modulating Protein-Protein Interactions of the Mitotic Polo-like Kinases to Target Mutant KRAS” (Cell Chemical Biology, 2017)
# Like-named read-outs stand apart in the source and are kept apart here.
# Assays:
# HCT116 wt = experiment: Viability of drug-sensitive parental HCT116 cells; format: cell-based; conditions: Homo sapiens, HCT-116, 72 h
# Method: (§1) Viability is represented as percentage survival normalised to DMSO control. […] PCR reactions were carried out using Amplitaq Gold polymerase (Applied Biosystems N8080241) with a 25-cycle programme. […] Prepared samples were submitted for next generation sequencing using MiSeq Nano run with Nextera XT library preparation. Sequencing and subsequent bioinformatics were performed by Cambridge Genomic Services (University Of Cambridge).
# [1] = system: HCT116 BI 2536-Res. Clones; experiment: Viability of BI 2536-resistant HCT116 clones; format: cell-based, human; conditions: Homo sapiens, HCT-116; BI2536-Res. (Mean), 72 h; read-out: GI50
# Method: as §1
# HCT116 KRAS G13D cells = experiment: Development of drug resistance under continuous treatment; format: cell-based, human; conditions: continuous treatment at 5x GI50
# Method: HCT116 wild-type cells (Horizon Discovery Ltd.) cultured in McCoy's 5A (Life Technologies #26600) medium supplemented with 10% Foetal Calf Serum (Life Technologies #10270) were treated on three occasions with titrations of the PLK1 ATP-competitive inhibitor BI 2536 (Selleckchem #S1109) or Poloppin in order to determine the 2.5x GI50, 3x GI50 and 5x GI50 values for each compound required to initiate the development of resistance. Cells were subsequently treated with 2.5x GI50, 3x GI50 and 5x GI50 concentrations of either compound, changing media and compound every three to four days until resistant colonies emerged or no viable cells remained. Single cell clones were isolated from cells resistant to 5x GI50 BI 2536. Equivalent experiments using 3x GI50 or 2.5x GI50 doses of Poloppin or BI2536 yielded identical results (data not shown). BI 2536-resistant clones (HCT116 BI 2536-Res. Clones) were treated with BI2536 or Poloppin, alongside drug-sensitive parental HCT116 cells (HCT116 wt), and viability was assessed after 72 h. Viability is represented as percentage survival normalised to DMSO control. […]
# HeLa cells = experiment: Mitotic index assay in HeLa cells; format: cell-based, human; conditions: for EC50: Homo sapiens, HeLa, Figure 5A, read-out: MI EC50 (cellular assay for mitotic arrest)
# Method: Cells were plated at 10 000/well in 96-well plates and incubated overnight. The following day compound stocks in DMSO were diluted in medium then added to cells with a maximum final DMSO concentration on cells of 0.2%. […] Cells were permeabilised with 0.1% Triton X-100 then incubated with anti-phospho-histone H3 (Ser10) antibody (Abcam ab5176). The cells were washed with PBS then incubated with AlexaFluor 488 labelled goat anti-rabbit IgG (Invitrogen A11034) in the presence of 4ug/ml Hoechst 33342 (Invitrogen H3570). Cells were washed in PBS then imaged on an Arrayscan VTi HCS instrument (Thermo Fisher) using the Target Activation V4 Bioapplication. A user-defined threshold was applied to identify mitotic cells based on the intensity of phospho-histone H3 staining.
# Panc-1 = experiment: Cell viability (SRB), Panc-1; format: cell-based, human; conditions: Panc-1, c-MET inhibitor alone, SRB 72 h, Figure S5C, read-out: EC50, % survival
# Method: SW48 Parental, SW48 G12D, Panc-1, HPAF-II, Panc 02.03 and Panc 05.04 cell lines were seeded overnight at 5000 cells per well in a 96 well plate in recommended media (ATCC). Compounds were added the following day and viability was measured at 72h using the sulforhodamine B (SRB) colorimetric assay as follows. Cells were fixed by replacing media with 1% v/v Trichloroacetic Acid (TCA) (Sigma-Aldrich) at 4°C and incubated for 1h also at 4°C. Wells were washed thoroughly with copious amounts of deionised water before staining with Sulforhodamine B (SRB) (Sigma-Aldrich) solution (0.057% w/v in 1% v/v Acetic Acid (VWR)) for 30 min. Stain was aspirated and wells washed with several changes of 1% v/v Acetic Acid until unbound stain was removed, before air-drying. Bound stain was solubilized with 100μl / well 10mM Tris (pH 8.0) (Trizma Base (121.1) Sigma-Aldrich) with agitation for 10 min. Fluorescence intensity was recorded at Ex540nm / Em590nm using a BMG Pherastar Plus plate reader ([Vichai and Kirtikara, 2006]).
# Pancreatic organoids were extracted and cultured as detailed above ([Boj et al., 2015]). In brief, pancreatic organoids were seeded at 600 cells per well in a 96 well plate and allowed to grow for 7 days with media replenishment on the 3rd day. Full-grown organoids were then treated with compounds for 72h and viability determined using CellTitre Glo 3D assay (Promega). For viability assays with c-MET siRNA, cells were reverse transfected in a 6 cm dish using Dharmafect 1 (GE Dharmacon) per manufacturer’s instructions. On the following day, cells were trypsinised and plated onto 96 well plates or 6 well plates. The 96 well plates were treated with a dose range of compounds or DMSO, and viability was determined via SRB colorimetric assay. Cells in the 6 well plates were collected at the end of experiment to corroborate knockdown of c-MET by Western blotting.
# Cells were reverse-transfected with 50nM (SW48 parental, SW48 KRAS G12D and Panc-1) or 25nM (HeLa Flp-In T-REx parental cells) siRNA using Dharmafect (GE Dharmacon) as manufacturer’s recommendations. Where transfected cells were subsequently treated with compounds, the cells were allowed to settle overnight and then treated with compound at the indicated concentration the following day. Viability was assessed after 72 hrs, with the SRB colorimetric assay. Knockdown efficiencies were determined by Western blot or RT-qPCR. Oligos against the following target sequences were used. c-MET (Qiagen): […], […], […]. PLK1 (Qiagen): […]. PLK2 (SMARTpool; Dharmacon): ACACAGAAGGAGAACGAUA, CAUCAAUGAGGAUAGGAUA, CUGCCUAGUGUUACUGAUA, ACAAAGUCUACGCCGCAAA. PLK3 (SMARTpool; Dharmacon): GCGAGAAGAUCCUAAAUGA, GCAAGUGGGUUGACUACUC, GCACAUCCGUUGGCCAUCA, GACCUCAAGUUGGGAAAUU. PLK4 (Qiagen): […].
# [2] = biological target: T1, NanoLuc-PLK1 fusion protein (Homo sapiens, UniProt P53350); experiment: NanoLuc thermal shift assay; format: cell-based; conditions: compound at 100 μM
# T1 construct: NanoLuc fused to the N-termini of full-length human PLK1, PLK2, PLK3, PLK4 or p38α MAPK; expressed in transfected cells; host or cells: HeLa, transient, digitonin-permeabilised
# T1 sequence (P53350 whole entry, the tested form may be a part): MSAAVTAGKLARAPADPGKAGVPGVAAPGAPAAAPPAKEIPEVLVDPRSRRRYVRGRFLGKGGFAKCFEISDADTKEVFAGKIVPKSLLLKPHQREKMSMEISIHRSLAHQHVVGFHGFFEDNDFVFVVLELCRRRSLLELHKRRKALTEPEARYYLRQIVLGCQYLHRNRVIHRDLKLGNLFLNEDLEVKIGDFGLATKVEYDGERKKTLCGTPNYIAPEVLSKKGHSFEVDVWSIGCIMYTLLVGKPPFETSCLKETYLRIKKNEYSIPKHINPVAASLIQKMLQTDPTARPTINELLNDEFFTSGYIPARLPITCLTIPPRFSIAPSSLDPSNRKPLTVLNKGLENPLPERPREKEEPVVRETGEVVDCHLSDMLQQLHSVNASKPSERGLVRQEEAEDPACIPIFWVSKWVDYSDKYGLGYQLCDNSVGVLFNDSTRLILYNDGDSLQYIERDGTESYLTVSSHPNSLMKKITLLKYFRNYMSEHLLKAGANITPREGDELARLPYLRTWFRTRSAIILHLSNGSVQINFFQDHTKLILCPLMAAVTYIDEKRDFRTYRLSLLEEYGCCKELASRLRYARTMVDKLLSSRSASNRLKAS
# Method: (§2) HeLa cells were transfected with plasmids encoding NanoLuc fused to the N-termini of full-length human PLK1, PLK2, PLK3, PLK4 or p38α MAPK. Twenty-four h after transfection, the thermal stability of the fusion proteins was tested using a modified version of the assay protocol supplied by Promega. Briefly, cells were harvested by tyrpsinisation and centrifugation, counted, and resuspended to 200,000 cells/ml in 3mls of serum-free OptiMEM media. Cells were then permeabilised using with 50ug/ml digitonin in DMSO for 5 min and incubated with test compounds at 100uM, plus protease inhibitor cocktail (Promega G6521), in a final concentration of 5% DMSO for 1 h at 37°C. After incubation, 100 μl/well of cells were aliquoted into a 96-well, thin-walled PCR plate and then heated for 3 minutes using a pre-warmed MJ Tetrad DNA Engine set to run a temperature gradient of 42 to 66°C. The plates were then cooled to room temperature for 10 min, and then 80μl of each sample was transferred to a white-walled 96-well Nunc plate before NanoBRET™ NanoGlo Substrate diluted in Opti-MEM was added. NanoLuc enzyme activity was read out within 10 min using a BMG Clariostar plate reader.
# (§3) Nanoluciferase enzyme activity of PLK1- or PLK4-Nanoluc fusion protein was analysed using GraphPad Prism. Data were normalised as follows: (treatment A RLU value at X°C temp/treatment A RLU value at 42°C temp) x 100. Using the Boltzmann sigmoidal equation, a curve was then fitted to the normalised data. From this non-linear fit, a V50 value was generated, which in this context represents the aggregation onset temperature (Tagg), at which 50% of the PLK1- or PLK4-Nanoluc fusion protein has aggregated.
# [3] = biological target: T2, NanoLuc-PLK4 fusion protein (Homo sapiens, UniProt O00444); experiment: NanoLuc thermal shift assay; format: cell-based; conditions: compound at 100 μM
# T2 construct: NanoLuc fused to the N-termini of full-length human PLK1, PLK2, PLK3, PLK4 or p38α MAPK; expressed in transfected cells; host or cells: HeLa, transient, digitonin-permeabilised
# T2 sequence (O00444 1-970): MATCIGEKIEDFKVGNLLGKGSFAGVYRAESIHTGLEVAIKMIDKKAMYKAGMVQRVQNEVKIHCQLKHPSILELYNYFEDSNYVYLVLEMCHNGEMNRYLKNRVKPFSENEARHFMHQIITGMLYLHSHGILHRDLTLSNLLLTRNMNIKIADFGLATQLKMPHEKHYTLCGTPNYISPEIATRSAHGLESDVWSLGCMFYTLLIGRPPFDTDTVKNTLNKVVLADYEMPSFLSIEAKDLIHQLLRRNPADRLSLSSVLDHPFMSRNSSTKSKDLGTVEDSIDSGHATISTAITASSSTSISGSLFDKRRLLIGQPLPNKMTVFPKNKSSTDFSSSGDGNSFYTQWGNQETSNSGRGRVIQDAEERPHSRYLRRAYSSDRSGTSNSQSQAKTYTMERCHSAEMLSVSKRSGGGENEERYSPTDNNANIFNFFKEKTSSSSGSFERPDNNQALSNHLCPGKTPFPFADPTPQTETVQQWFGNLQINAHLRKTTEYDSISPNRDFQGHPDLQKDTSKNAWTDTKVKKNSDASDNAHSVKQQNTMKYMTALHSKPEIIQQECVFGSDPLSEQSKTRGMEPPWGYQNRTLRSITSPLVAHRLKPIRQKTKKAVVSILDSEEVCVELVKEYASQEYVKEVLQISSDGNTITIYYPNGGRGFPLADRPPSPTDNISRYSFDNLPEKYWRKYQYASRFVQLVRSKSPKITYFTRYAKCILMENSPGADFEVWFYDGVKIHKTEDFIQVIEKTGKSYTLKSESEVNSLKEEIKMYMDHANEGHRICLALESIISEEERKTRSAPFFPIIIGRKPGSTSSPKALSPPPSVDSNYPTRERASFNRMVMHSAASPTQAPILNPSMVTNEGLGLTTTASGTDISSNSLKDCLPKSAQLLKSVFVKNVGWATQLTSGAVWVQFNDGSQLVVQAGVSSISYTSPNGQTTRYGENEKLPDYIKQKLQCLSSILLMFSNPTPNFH
# Method: as §2, §3
# [4] = biological target: T3, PLK1-PBD(345-603), Polo-box domain of human Polo-like kinase 1 (human, UniProt P53350 345-603); experiment: fluorescence polarisation; competition format: TAMRA-labelled phosphopeptide 10 nM, PBD 84 nM (2.5 ng/ul), PBS pH 7.4 plus 0.03% tween; compound and PBD incubated together at 22 C for 1 hour before the peptide was added; same procedure for PLK2 PBD with its own peptide; conditions: both partners purified
# T3 construct: Polo-like kinase 1 (PLK1), human, Polo-box domain, residues 345-603; also called PLK1 PBD (aa345-603); PBDaa345-603; source: E. coli C41, purified (GST-Sepharose column, cleaved on column with PreScission protease, gel chromatography)
# T3 sequence (P53350 345-603): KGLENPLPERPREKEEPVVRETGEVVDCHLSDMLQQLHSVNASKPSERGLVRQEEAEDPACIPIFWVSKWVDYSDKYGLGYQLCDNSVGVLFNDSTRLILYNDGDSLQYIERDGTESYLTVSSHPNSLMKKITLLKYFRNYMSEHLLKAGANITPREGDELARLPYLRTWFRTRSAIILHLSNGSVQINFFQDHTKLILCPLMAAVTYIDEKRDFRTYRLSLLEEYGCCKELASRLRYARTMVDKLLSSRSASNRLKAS
molecule,measurement,setting,value
"CC[C@@H]1C(=O)N(C)c2cnc(Nc3ccc(C(=O)NC4CCN(C)CC4)cc3OC)nc2N1C1CCCC1 [BI2536, reference compound]",GI50,HCT116 wt,0.00825 µM
same,GI50,[1],0.0309 µM
same,acquisition of drug resistance,HCT116 KRAS G13D cells,readily acquire resistance
CN(C)CCNC(=O)c1ccc(-c2ccc(-c3ccc(Br)cc3)n2-c2ccccc2C(F)(F)F)cc1 [compound 5],EC50,HeLa cells,0.36 µM
O=C1NC(=O)C(c2cn3c4c(cccc24)CCC3)C1c1c[nH]c2ccccc12 (centres unmarked) [Tivatinib],EC50,Panc-1,1.2 ± 1.03 µM
Cc1cc(Cl)ccc1-n1c(CCC(=O)N(C)C)ccc1-c1ccc(Br)cc1 [PB114],thermal stability of NanoLuc-PLK1,[2],less active
same,thermal stability of NanoLuc-PLK4,[3],less active
same,"EC50, mitotic index assay","HeLa cells; HeLa cells treated for 16 hr, Figure 5B",inactive
COc1cc2c(Oc3ccc(NC(=O)C4(C(=O)Nc5ccc(F)cc5)CC4)cc3F)ccnc2cc1OCCCN1CCOCC1 [Foretinib],EC50,Panc-1; Homo sapiens,2.6 ± 1.04 µM
CN(C)CCNC(=O)c1cccc(-c2ccc(-c3ccc(Br)cc3)n2-c2ccccc2C(F)(F)F)c1 [compound 4],EC50,HeLa cells,0.58 µM
"MAGPMQSTPLMGAKK (not fully specified; 5-TAMRA on the N-terminus; phosphothreonine (pThreonine) after MAGPMQS, residue 8 of the letters; C-terminal acid, also called TAMRA-labeled substrate peptide) [TAMRA-labelled consensus PLK1 PBD binding phosphopeptide, 5-TAMRA-MAGPMQS(pThreonine)PLMGAKK-acid]",binding result,[4],binds
